Tests used:
HMOX1 [1] = experiment: nascent RNA sequencing of HT-1080 cells exposed to GPX4 inhibitors; type: cell-based; conditions: HT-1080, 1 μM, 1 hour, Pval<10^−2
Experimental: (§1) To assess the transcriptional response of a cell to inhibition of GPX4, we exposed two cell lines to two different chemical inhibitors of GPX4 (ML162 and RSL3; available from Sigma Aldrich and Apex Bio respectively) and examined the transcriptional responses using a nascent RNA sequencing protocol. Briefly, a fibrosarcoma cell line HT-1080 and a lung fibroblast cell line IMR90 were exposed to 1 μM ML162 or 1 μM RSL3 for 1 hour and the nascent RNA sequencing protocol was performed.

HMOX1 [2] = experiment: RT-qPCR of HMOX1 expression in A673 cells; type: cell-based; conditions: A673, 1 μM, four hours
Experimental: (§2) To confirm HMOX1 induction by the GPX4 inhibitors, an RT-qPCR assay was performed using three ferroptosis sensitive cancer cell lines: the fibrosarcoma cell line HT-1080, a Ewing's sarcoma cell line A673, and a renal clear cell carcinoma cell line 786-O. Briefly, cells were exposed to 1 μM ML162 or 1 μM RSL3 for 4 hours, RNA was isolated and an RT-qPCR assay was performed.
(§3) Briefly, HT-1080, A673, and 786-O cells were exposed to 1 μM ML162 or 1 μM RLS3 with or without 1 μM ferrostatin-1 for four hours, RNA was isolated and an RT-qPCR assay was performed to quantify HMOX1 expression. DMSO was used as a control exposure.

HMOX1 [3] = experiment: RT-qPCR of HMOX1 expression in HT-1080 cells; type: cell-based; conditions: for expression of HMOX1 relative to ACTB, absence of ferrostatin-1: HT-1080, 1 μM, four hours; for effect of ferrostatin-1 on the substance's induction of HMOX1: HT-1080, sodium arsenite 80 μM, hemin 5 μM, RSL3 1 μM, with or without 1 μM ferrostatin-1, four hours, normalized to DMSO
Experimental: as §2
To further validate induction of HMOX1 mRNA expression by GPX4 inhibition, RT-qPCR was performed using varying doses of the RSL3 inhibitor. Briefly, HT-1080 cells were exposed to 5 μM RSL3, 1 μM RSL3, and 0.2 μM RSL3 for four hours, RNA was isolated and an RT-qPCR assay was performed to quantify HMOX1 expression. DMSO was used as a control exposure.
as §3
Sodium arsenite and hemin are known to be inducers of general oxidative stress in cells. Briefly, HT-1080 cells were exposed to sodium arsenite (80 μM), hemin (5 μM), ML162 (1 μM), or RSL3 (1 μM) with or without 1 μM ferrostatin-1 for four hours, RNA was isolated and an RT-qPCR assay was performed to quantify HMOX1 expression. DMSO was used as a control exposure.

HMOX1 [4] = experiment: RT-qPCR of HMOX1 expression in 786-O cells; type: cell-based; conditions: 1 μM, four hours
Experimental: as §2, §3

HMOX1 [5] = experiment: nascent RNA sequencing of IMR90 cells exposed to GPX4 inhibitors; type: cell-based; conditions: IMR90, 1 μM, 1 hour, Pval 10^−3
Experimental: as §1

HMOX1 [6] = experiment: RT-qPCR of HMOX1, ferrostatin-1 rescue of GPX4 inhibitor-mediated induction in HT-1080, A673 and 786-O cells; type: cell-based; conditions: HT-1080, A673, 786-O; 1 μM ferrostatin-1 with 1 μM ML162 or RSL3, four hours
Experimental: as §3

[7] = test system: HT-1080, A673, and 786-O cells lines; conditions: ferrostatin-1 added to the culture media; HT-1080, A673, 786-O; cited from earlier work

Row | Molecule | differential expression of HMOX1 (nascent RNA sequencing) (HMOX1 [1]) | expression of HMOX1 relative to ACTB, absence of ferrostatin-1 (HMOX1 [2]) | expression of HMOX1 relative to ACTB, absence of ferrostatin-1 (HMOX1 [3]) | expression of HMOX1 relative to ACTB, absence of ferrostatin-1 (HMOX1 [4]) | differential expression of HMOX1 (nascent RNA sequencing) (HMOX1 [5]) | effect of ferrostatin-1 on the substance's induction of HMOX1 (HMOX1 [3]) | also measured
1 | COc1ccc(N(C(=O)CCl)C(C(=O)NCCc2ccccc2)c2cccs2)cc1Cl (centres unmarked) [ML162] | strongly differentially expressed | HMOX1 expression was observed in all three cell lines | HMOX1 expression was observed in all three cell lines | HMOX1 expression was observed in all three cell lines | strongly differentially expressed |  | expression of HMOX1 relative to ACTB, presence of ferrostatin-1 (HMOX1 [3]; HT-1080, 1 μM inhibitor with 1 μM ferrostatin-1, four hours): induced HMOX1 even in the presence of ferrostatin-1
2 | COC(=O)c1ccc([C@@H]2c3[nH]c4ccccc4c3C[C@@H](C(=O)OC)N2C(=O)CCl)cc1 [RSL3] | strongly differentially expressed | HMOX1 expression was observed in all three cell lines | HMOX1 expression was observed in all three cell lines | HMOX1 expression was observed in all three cell lines | strongly differentially expressed | dependent on lipid peroxidation | dose dependence of HMOX1 expression relative to ACTB (HMOX1 [3]; HT-1080, 5 μM, 1 μM and 0.2 μM RSL3, four hours): proportional to the dose
3 | CCOC(=O)c1ccc(NC2CCCCC2)c(N)c1 [ferrostatin-1] |  |  |  |  |  |  | effect of ferrostatin-1 on induction of HMOX1 by RSL3 and ML162 (HMOX1 [6]): sufficient to prevent induction of HMOX1 in most conditions; cellular viability of cells treated with small molecules that induce lipid peroxidation (e.g., GPX4 inhibitors) [7]: rescues cellular viability
4 | O=[As]O [sodium arsenite] |  |  |  |  |  | not affected by the presence of ferrostatin-1 | 
5 | hemin |  |  |  |  |  | not affected by the presence of ferrostatin-1 | 
